Results taken from the supplement of paper PMC10307832.

Columns and labels:
Experiment in all cases: relative viability (nuclei count vs DMSO), 5 days (fraction); higher = more cells survive
201T = test system: 201T
Procedure, shortened: (§1)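 Five library-drug doses in √10 steps were combined with a fixed anchor-drug dose, or a single drug was given alone, by pin tool to lung cancer cell lines in 1536-well plates the day after seeding. Nuclei were stained and counted after 5 days. Relative viability is the nuclei count in treated wells over that in vehicle wells, taken as the median of duplicate plates.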

BEN = test system: BEN
Procedure, shortened: as §1

EMC-BAC-2 = test system: EMC-BAC-2
Procedure, shortened: as §1

HARA = test system: HARA
Procedure, shortened: as §1

HCC-44 = test system: HCC-44
Procedure, shortened: as §1

LCLC-103H = test system: LCLC-103H
Procedure, shortened: as §1

LOU-NH91 = test system: LOU-NH91
Procedure, shortened: as §1

NCI-H1395 = test system: NCI-H1395
Procedure, shortened: as §1

NCI-H1666 = test system: NCI-H1666
Procedure, shortened: as §1

NCI-H1993 = test system: NCI-H1993
Procedure, shortened: as §1

NCI-H2009 = test system: NCI-H2009
Procedure, shortened: as §1

NCI-H2023 = test system: NCI-H2023
Procedure, shortened: as §1

SMILES: Clc1ccc(Nc2nnc(Cc3ccncc3)c3ccccc23)cc1 [Vatalanib] + C[C@]1(O)C[C@@H](c2nc(-c3ccc4ccc(-c5ccccc5)nc4c3)c3c(N)nccn32)C1 [Linsitinib] (partner 1 µM)
- relative viability (201T; first compound 0.04 µM): 1.02
- relative viability (201T; first compound 0.1265 µM): 1.04
- relative viability (201T; first compound 0.4 µM): 1.02
- relative viability (201T; first compound 1.265 µM): 0.985
- relative viability (201T; first compound 4 µM): 0.949
- relative viability (BEN; first compound 0.04 µM): 0.992
- relative viability (BEN; first compound 0.1265 µM): 0.785
- relative viability (BEN; first compound 0.4 µM): 0.99
- relative viability (BEN; first compound 1.265 µM): 0.943
- relative viability (BEN; first compound 4 µM): 0.97
- relative viability (EMC-BAC-2; first compound 0.04 µM): 0.817
- relative viability (EMC-BAC-2; first compound 0.1265 µM): 0.762
- relative viability (EMC-BAC-2; first compound 0.4 µM): 0.793
- relative viability (EMC-BAC-2; first compound 1.265 µM): 0.808
- relative viability (EMC-BAC-2; first compound 4 µM): 0.802
- relative viability (HARA; first compound 0.04 µM): 1.02
- relative viability (HARA; first compound 0.1265 µM): 0.896
- relative viability (HARA; first compound 0.4 µM): 1
- relative viability (HARA; first compound 1.265 µM): 0.84
- relative viability (HARA; first compound 4 µM): 0.838
- relative viability (HCC-44; first compound 0.04 µM): 0.683
- relative viability (HCC-44; first compound 0.1265 µM): 0.643
- relative viability (HCC-44; first compound 0.4 µM): 0.676
- relative viability (HCC-44; first compound 1.265 µM): 0.636
- relative viability (HCC-44; first compound 4 µM): 0.679
- relative viability (LCLC-103H; first compound 0.04 µM): 1.24
- relative viability (LCLC-103H; first compound 0.1265 µM): 1.07
- relative viability (LCLC-103H; first compound 0.4 µM): 1.24
- relative viability (LCLC-103H; first compound 1.265 µM): 1.06
- relative viability (LCLC-103H; first compound 4 µM): 1.05
- relative viability (LOU-NH91; first compound 0.04 µM): 1.02
- relative viability (LOU-NH91; first compound 0.1265 µM): 0.921
- relative viability (LOU-NH91; first compound 0.4 µM): 0.757
- relative viability (LOU-NH91; first compound 1.265 µM): 0.913
- relative viability (LOU-NH91; first compound 4 µM): 0.89
- relative viability (NCI-H1395; first compound 0.04 µM): 1.14
- relative viability (NCI-H1395; first compound 0.1265 µM): 0.99
- relative viability (NCI-H1395; first compound 0.4 µM): 1.63
- relative viability (NCI-H1395; first compound 1.265 µM): 0.998
- relative viability (NCI-H1395; first compound 4 µM): 0.86
- relative viability (NCI-H1666; first compound 0.04 µM): 0.805
- relative viability (NCI-H1666; first compound 0.1265 µM): 0.891
- relative viability (NCI-H1666; first compound 0.4 µM): 0.923
- relative viability (NCI-H1666; first compound 1.265 µM): 0.779
- relative viability (NCI-H1666; first compound 4 µM): 0.708
- relative viability (NCI-H1993; first compound 0.04 µM): 0.699
- relative viability (NCI-H1993; first compound 0.1265 µM): 0.754
- relative viability (NCI-H1993; first compound 0.4 µM): 0.745
- relative viability (NCI-H1993; first compound 1.265 µM): 0.727
- relative viability (NCI-H1993; first compound 4 µM): 0.734
- relative viability (NCI-H2009; first compound 0.04 µM): 1.16
- relative viability (NCI-H2009; first compound 0.1265 µM): 1.04
- relative viability (NCI-H2009; first compound 0.4 µM): 1.3
- relative viability (NCI-H2009; first compound 1.265 µM): 1.16
- relative viability (NCI-H2009; first compound 4 µM): 1.18
- relative viability (NCI-H2023; first compound 0.04 µM): 0.726
- relative viability (NCI-H2023; first compound 0.1265 µM): 0.735
